From patent US20180037568A1, “MODULATORS OF METHYL MODIFYING ENZYMES, COMPOSITIONS AND USES THEREOF” (Constellation Pharmaceuticals, Inc., priority 2015, published 2018) come the findings set out here.

Read-outs that look alike come from different tables or passages of the source.

One test relates to H3K27me3 mark. The test can be described thus: H3K27me3 Alpha Hela Assay (AlphaLISA). The test is classed as cell-based. Particulars: Hela cells, read-out: EZH2 Cell H3K27me3 Alpha HeLa (EC50 K27me3). The gist of the method:
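HeLa cells at 1,000/well were treated with ten 3-fold compound doses for 72 h at 37 °C. After lysis and histone extraction, H3K27me3 was detected by AlphaLISA with anti-K27me3 acceptor beads, biotinylated anti-H3 (C-ter) antibody (3 nM final) and streptavidin donor beads (20 μg/mL final). Signals were normalized to DMSO and curve-fitted for EC50.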

Another test addresses EZH2 (Homo sapiens, UniProt Q15910). The test can be described thus: EZH2 nuc BSA Brij 1.5 (IC50): rPRC2, biotinylated oligonucleosome substrate, 3H SAM FlashPlate. The format is biochemical. The protocol: EZH2 Nuc BSA Brij 1.5 (IC50):
Assays were carried out by mixing rPRC2 together with biotinylated oligonucleosome substrates in the presence of the radio-labeled enzyme co-factor, S-adenosyl-L-methionine (^3H SAM) (Perkin Elmer) and monitoring the enzymatically mediated transfer of tritiated methyl groups from ^3H SAM to histone lysine residues. The amount of resulting tritiated methyl histone product was measured by first capturing the biotinylated oligonucleosomes in streptavidin (SAV) coated FlashPlates (Perkin Elmer), followed by a wash step to remove un-reacted ^3H SAM, and then counting on a TopCount NXT 384 well plate scintillation counter (Perkin Elmer). The final assay conditions for EZH2 were as follows: 50 mM Tris Buffer pH 8.5, 1 mM DTT, 69 μM Brij-35 detergent, 5.0 mM MgCl2, 0.1 mg/mL BSA, 0.2 μM ^3H SAM, 0.2 μM biotinylated oligonucleosomes, 3.6 μM H3K27me3 peptide and 2 nM EZH2.
Compound IC50 Measurements were Obtained as Follows:
Compounds were first dissolved in 100% DMSO as 10 mM stock solutions. Ten point dose response curves were generated by dispensing varying amounts of the 10 mM compound solution in 10 wells of the 384 well plate (Echo; Labcyte), pure DMSO was then used to backfill the wells to insure all wells have the same amount of DMSO. A 12.5 μL volume of the HMT enzyme, H3K27me3 peptide and oligonucleosome substrate in assay buffer was added to each well of the assay plate using a Multidrop Combi (ThermoFisher). Compounds were pre-incubated with the enzyme for 20 min, followed by initiation of the methyltransferase reaction by addition of 12.5 μL of ^3H SAM in assay buffer (final volume=25 μL). The final concentrations of compounds ranged from a top default concentration of 80 μM down to 0.16 μM in ten 2-fold dilution steps. Reactions were carried out for 60 minutes and quenched with 20 μL per well of 1.96 mM SAH, 50 mM Tris pH 8.5, 200 mM EDTA. Stopped reactions were transferred to SAV coated Flashplates (Perkin Elmer), incubated for 120 min, washed with a plate washer, and then read on the TopCount NXT (1.0 min/well) to measure the amount of methyl histone product formed during the reaction. The amount of methyl histone product was compared with the amount of product formed in the 0% and 100% inhibition control wells allowing the calculation of % Inhibition in the presence of the individual compounds at various concentrations. IC50's were computed using a 4 parameter fit non-linear curve fitting software package (XLFIT, part of the database package, ActivityBase (IDBS)) where the four parameters were IC50, Hill slope, pre-transitional baseline (0% INH), and post-transitional baseline (100% INH); with the latter two parameters being fixed to zero and 100%, respectively, by default.

The next test addresses T1, PRC2 containing wt EZH2 (Homo sapiens, UniProt Q15910).
T1 construct: made in house
The test can be described thus: EZH2 pep BSA Brij 4.0 LowE (IC50): 3H-SAM incorporation into biotinylated H3 peptide. The test is classed as biochemical. The method, boiled down: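 PRC2 (wt EZH2, 20 pM) pre-incubated 120 min with compound, 0.9 μM 3H-SAM and 2 μM H3K27me3 activating peptide in pH 8.5 Tris/DTT/Brij-35/0.1% BSA, 0.8% DMSO. Biotinylated H3K27me1 peptide added (2 μM stock), 5 h at room temperature, EDTA/SAH quench, streptavidin Flashplate capture. IC50 from four-parameter fit versus full-activity and no-enzyme controls.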

The mark [1] stands for this setting: read-out: EZH2 nuc BSA Brij 1.5 (IC50); 2 nM EZH2, 0.2 μM biotinylated oligonucleosomes, 0.2 μM 3H SAM, 3.6 μM H3K27me3 peptide.
Where [2] appears, read: EZH2 pep BSA Brij 4.0 LowE (IC50), 20 pM PRC2 wt EZH2, 0.9 μM 3H-SAM, biotinylated H3 peptide substrate, 2 μM H3K27me3 activating peptide.
Setting [3] is: EZH2 nuc BSA Brij 1.5 (IC50), 2 nM EZH2, 0.2 μM biotinylated oligonucleosomes, 0.2 μM 3H SAM, 3.6 μM H3K27me3 peptide.
Setting [4] is: read-out: EZH2 pep BSA Brij 4.0 LowE (IC50); 20 pM PRC2 wt EZH2, 0.9 μM 3H-SAM, biotinylated H3 peptide substrate, 2 μM H3K27me3 activating peptide.

As usually defined, the EC50 is the concentration needed to bring the measured effect to its halfway point. What is called IC50 is the concentration needed to halve the response being measured.

EZH2, sequence (Q15910 whole entry): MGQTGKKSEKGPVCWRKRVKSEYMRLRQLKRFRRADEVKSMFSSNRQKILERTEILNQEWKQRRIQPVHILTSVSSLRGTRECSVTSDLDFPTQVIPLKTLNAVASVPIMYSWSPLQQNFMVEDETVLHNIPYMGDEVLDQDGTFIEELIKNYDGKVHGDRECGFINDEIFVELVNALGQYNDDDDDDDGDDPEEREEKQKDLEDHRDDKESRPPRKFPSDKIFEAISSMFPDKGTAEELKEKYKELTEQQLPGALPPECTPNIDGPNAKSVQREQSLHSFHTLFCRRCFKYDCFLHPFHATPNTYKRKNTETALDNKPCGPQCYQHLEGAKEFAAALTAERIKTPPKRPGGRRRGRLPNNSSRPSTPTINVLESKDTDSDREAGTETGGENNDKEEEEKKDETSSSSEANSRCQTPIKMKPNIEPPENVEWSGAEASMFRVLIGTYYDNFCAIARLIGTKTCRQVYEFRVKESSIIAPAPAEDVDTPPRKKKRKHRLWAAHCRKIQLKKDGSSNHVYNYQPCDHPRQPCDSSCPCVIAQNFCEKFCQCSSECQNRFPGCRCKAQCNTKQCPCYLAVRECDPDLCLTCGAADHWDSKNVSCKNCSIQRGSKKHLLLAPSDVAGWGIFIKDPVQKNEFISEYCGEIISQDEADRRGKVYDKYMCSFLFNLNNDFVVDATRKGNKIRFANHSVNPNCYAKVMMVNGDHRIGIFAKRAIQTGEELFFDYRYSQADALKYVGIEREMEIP
EZH2, sequence (O75530 whole entry partner): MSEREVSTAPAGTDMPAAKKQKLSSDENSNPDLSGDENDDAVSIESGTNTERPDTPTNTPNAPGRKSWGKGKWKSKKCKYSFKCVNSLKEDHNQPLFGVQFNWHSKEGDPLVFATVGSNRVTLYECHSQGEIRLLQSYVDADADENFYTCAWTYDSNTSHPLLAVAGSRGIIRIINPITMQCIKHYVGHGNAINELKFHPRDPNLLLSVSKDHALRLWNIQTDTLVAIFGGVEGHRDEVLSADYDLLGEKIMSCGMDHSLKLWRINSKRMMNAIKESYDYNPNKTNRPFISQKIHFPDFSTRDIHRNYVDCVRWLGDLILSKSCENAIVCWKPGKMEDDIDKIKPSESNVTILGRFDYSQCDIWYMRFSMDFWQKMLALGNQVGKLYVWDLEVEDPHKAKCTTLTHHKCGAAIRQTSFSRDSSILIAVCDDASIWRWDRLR
EZH2, sequence (Q15022 whole entry partner): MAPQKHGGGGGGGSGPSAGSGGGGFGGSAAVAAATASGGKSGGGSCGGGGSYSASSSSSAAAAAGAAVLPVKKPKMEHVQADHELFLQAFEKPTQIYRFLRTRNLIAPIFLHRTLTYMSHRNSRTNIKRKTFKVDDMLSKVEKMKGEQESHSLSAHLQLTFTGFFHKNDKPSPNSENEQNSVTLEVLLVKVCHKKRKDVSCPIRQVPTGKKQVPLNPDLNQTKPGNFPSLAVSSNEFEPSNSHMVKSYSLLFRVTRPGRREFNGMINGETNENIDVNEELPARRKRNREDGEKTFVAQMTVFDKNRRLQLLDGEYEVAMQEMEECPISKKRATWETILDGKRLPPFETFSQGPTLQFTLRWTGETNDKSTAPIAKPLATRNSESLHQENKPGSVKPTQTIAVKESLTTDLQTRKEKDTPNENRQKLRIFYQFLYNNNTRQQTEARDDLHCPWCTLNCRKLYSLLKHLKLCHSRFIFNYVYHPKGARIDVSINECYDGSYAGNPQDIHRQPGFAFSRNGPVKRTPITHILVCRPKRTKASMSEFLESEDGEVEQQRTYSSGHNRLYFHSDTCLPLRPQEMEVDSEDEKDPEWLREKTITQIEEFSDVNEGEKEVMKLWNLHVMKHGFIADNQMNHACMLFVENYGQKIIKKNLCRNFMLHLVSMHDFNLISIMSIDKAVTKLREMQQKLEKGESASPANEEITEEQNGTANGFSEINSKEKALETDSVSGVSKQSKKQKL
T1 sequence (Q15910 whole entry): as the sequence (Q15910 whole entry) above
T1 sequence (O75530 whole entry partner): as the sequence (O75530 whole entry partner) above
T1 sequence (Q15022 whole entry partner): as the sequence (Q15022 whole entry partner) above
T1 sequence (Q09028 whole entry partner): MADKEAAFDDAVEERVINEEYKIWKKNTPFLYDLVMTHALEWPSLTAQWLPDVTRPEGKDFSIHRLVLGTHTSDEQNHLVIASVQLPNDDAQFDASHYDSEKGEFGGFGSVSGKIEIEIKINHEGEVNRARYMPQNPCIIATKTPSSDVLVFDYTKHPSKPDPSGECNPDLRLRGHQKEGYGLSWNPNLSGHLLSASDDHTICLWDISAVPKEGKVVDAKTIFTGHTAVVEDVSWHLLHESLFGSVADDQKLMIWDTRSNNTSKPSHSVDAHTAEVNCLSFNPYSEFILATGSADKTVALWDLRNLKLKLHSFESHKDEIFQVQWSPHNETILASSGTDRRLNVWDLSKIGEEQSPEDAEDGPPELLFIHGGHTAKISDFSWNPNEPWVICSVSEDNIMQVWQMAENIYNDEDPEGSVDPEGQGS
T1 sequence (Q6ZN18 whole entry partner): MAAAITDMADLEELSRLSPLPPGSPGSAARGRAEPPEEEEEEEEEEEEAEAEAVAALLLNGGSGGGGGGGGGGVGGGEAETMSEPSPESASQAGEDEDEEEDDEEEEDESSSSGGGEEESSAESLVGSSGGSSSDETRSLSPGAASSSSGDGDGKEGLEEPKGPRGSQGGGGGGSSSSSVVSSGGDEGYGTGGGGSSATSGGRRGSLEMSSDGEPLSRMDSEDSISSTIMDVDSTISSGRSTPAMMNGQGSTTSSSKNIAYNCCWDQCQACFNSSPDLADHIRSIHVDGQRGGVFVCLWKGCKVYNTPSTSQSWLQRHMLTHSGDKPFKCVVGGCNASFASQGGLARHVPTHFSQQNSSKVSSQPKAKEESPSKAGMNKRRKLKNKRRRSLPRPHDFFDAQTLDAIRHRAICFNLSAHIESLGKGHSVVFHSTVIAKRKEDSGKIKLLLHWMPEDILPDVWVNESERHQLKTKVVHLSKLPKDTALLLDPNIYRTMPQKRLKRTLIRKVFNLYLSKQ

As to `COc1cc(C)[nH]c(=O)c1CNC(=O)c1c(C)n(C(C)C2CCN(CC(F)(F)F)C(C)C2)c2ccccc12` (single isomer, unassigned) [Compound 43, N-((4-methoxy-6-methyl-2-oxo-1,2-dihydropyridin-3-yl)methyl)-2-methyl-1-(1-(2-methyl-1-(2,2,2-trifluoroethyl)piperidin-4-yl)ethyl)-1H-indole-3-carboxamide], in the test on H3K27me3 mark (72 hrs), the EC50 is under 400 nM. Besides, the IC50 at EZH2 (setting [1]) and on PRC2 containing wt EZH2 (setting [2]) was under 100 nM in each case.
`COc1cc(C)[nH]c(=O)c1CNC(=O)c1c(C)n(C(C)C2CCN(C)C(C(F)(F)F)C2)c2ccccc12` (single isomer, unassigned) [Compound 15, N-((4-methoxy-6-methyl-2-oxo-1,2-dihydropyridin-3-yl)methyl)-2-methyl-1-(1-(1-methyl-2-(trifluoromethyl)piperidin-4-yl)ethyl)-1H-indole-3-carboxamide]: in the test with H3K27me3 mark (72 hrs), the EC50 was under 400 nM. Also, the IC50 at EZH2 (setting [1]) and against PRC2 containing wt EZH2 (setting [2]) was under 100 nM throughout.
For `COc1cc(C)[nH]c(=O)c1CNC(=O)c1c(C)n(C(C)C2CCNC(C(F)(F)F)C2)c2ccccc12` (single isomer, unassigned) [Compound 14, N-((4-methoxy-6-methyl-2-oxo-1,2-dihydropyridin-3-yl)methyl)-2-methyl-1-(1-(2-(trifluoromethyl)piperidin-4-yl)ethyl)-1H-indole-3-carboxamide], the EC50 in the test on H3K27me3 mark (72 hrs) is under 400 nM. Besides, the IC50 at EZH2 (setting [3]) and against PRC2 containing wt EZH2 (setting [2]) was under 100 nM each time.
Turning to `COc1cc(C)[nH]c(=O)c1CNC(=O)c1c(C)n(C(C)C2CCNC(c3ccc(F)cc3)C2)c2ccccc12` (single isomer, unassigned) [Compound 31, 1-(1-(2-(4-fluorophenyl)piperidin-4-yl)ethyl)-N-((4-methoxy-6-methyl-2-oxo-1,2-dihydropyridin-3-yl)methyl)-2-methyl-1H-indole-3-carboxamide], the EC50 in the test with H3K27me3 mark (72 hrs) is 400 to 2000 nM. Further, the IC50 on EZH2 (2 nM EZH2, 0.2 μM biotinylated oligonucleosomes, 0.2 μM 3H SAM, 3.6 μM H3K27me3 peptide; read-out: EZH2 nuc BSA Brij 1.5 (IC50)) was under 100 nM; at PRC2 containing wt EZH2 (20 pM PRC2 wt EZH2, 0.9 μM 3H-SAM, biotinylated H3 peptide substrate, 2 μM H3K27me3 activating peptide; read-out: EZH2 pep BSA Brij 4.0 LowE (IC50)), under 100 nM.
As for `COc1cc(C)[nH]c(=O)c1CNC(=O)c1c(C)n(C(C)C2CCNC(C(F)(F)F)C2)c2ccccc12` (single isomer, unassigned) [Compound 18, N-((4-methoxy-6-methyl-2-oxo-1,2-dihydropyridin-3-yl)methyl)-2-methyl-1-(1-(2-(trifluoromethyl)piperidin-4-yl)ethyl)-1H-indole-3-carboxamide], the EC50 in the test with H3K27me3 mark (72 hrs) was under 400 nM. Moreover, the IC50 against EZH2 (setting [3]) and on PRC2 containing wt EZH2 (setting [4]) was under 100 nM in each case.
As for `COc1cc(C)[nH]c(=O)c1CNC(=O)c1c(C)n(C(C)C2CCN(C)C(C(F)(F)F)C2)c2ccccc12` (single isomer, unassigned) [Compound 24, N-((4-methoxy-6-methyl-2-oxo-1,2-dihydropyridin-3-yl)methyl)-2-methyl-1-(1-(1-methyl-2-(trifluoromethyl)piperidin-4-yl)ethyl)-1H-indole-3-carboxamide], the EC50 in the test with H3K27me3 mark (72 hrs) was under 400 nM. Besides, the IC50 on EZH2 (setting [1]) and on PRC2 containing wt EZH2 (setting [4]) was under 100 nM each time.
As for `COc1cc(C)[nH]c(=O)c1CNC(=O)c1c(C)n(C(C)C2CCN(C3COC3)CC2C(F)(F)F)c2ccccc12` (stereo not drawn) [Compound 8, N-((4-methoxy-6-methyl-2-oxo-1,2-dihydropyridin-3-yl)methyl)-2-methyl-1-(1-(1-(oxetan-3-yl)-3-(trifluoromethyl)piperidin-4-yl)ethyl)-1H-indole-3-carboxamide], the 50% effective concentration (EC50) in the test with H3K27me3 mark (Homo sapiens, HeLa, 72 h) was over 2000 nM. The IC50 against EZH2 (setting [3]) and against PRC2 containing wt EZH2 (setting [2]) was under 100 nM throughout.
Take `COc1cc(C)[nH]c(=O)c1CNC(=O)c1c(C)n(C(C)C2CCN(CC(F)F)C(C)C2)c2ccccc12` (single isomer, unassigned) [Compound 40, 1-(1-(1-(2,2-difluoroethyl)-2-methylpiperidin-4-yl)ethyl)-N-((4-methoxy-6-methyl-2-oxo-1,2-dihydropyridin-3-yl)methyl)-2-methyl-1H-indole-3-carboxamide]: the EC50 in the test on H3K27me3 mark (Homo sapiens, HeLa, 72 h) was under 400 nM. The concentration for half-maximal inhibition (IC50) at EZH2 (setting [3]) and on PRC2 containing wt EZH2 (setting [2]) was under 100 nM throughout.
